This is an account of results in patent US12642269B2, “Hydrogels as carriers of active ingredients and methods of producing the same” (WinField Solutions, LLC, priority 2018, dated 2026).

The subject of assay [1] is gumbo plants. Description: Example 3: herbicide-induced plant injury or death from carrier hydrogel precursor mixtures applied to plants, visual rating. The format is in vivo. Particulars: 14 days after spraying; glyphosate about 2.34% v/v, 10 gallons spray solution per acre; greenhouse; 100% = total death. Here is the method: Release of an herbicide from loaded hydrogels was indirectly studied by examining plant injury or death. Hydrogel precursor mixtures were prepared according to the method 200 illustrated in FIG. 2. The precursor mixture was prepared at a lactose to methacrylic anhydride ratio of 1:0.5.
Glyphosate (as Touchdown HiTech®, Syngenta) alone (control group) or glyphosate plus hydrogel precursor mixture (test groups) was added to water to form a spray solution. The amount of glyphosate in a spray solution was approximately the same (i.e., about 2.34% v/v) for each control and test group. Test groups also included hydrogel precursor mixture at 5% v/v, 10% v/v, 20% v/v, 25% v/v, or 50% v/v of spray solution. Each group included five gumbo plants in a greenhouse. Control or test groups were sprayed at 10 gallons of spray solution per acre. In the test groups, the hydrogel precursor mixtures plus glyphosate were allowed to crosslink in ambient conditions after application to the plants.
Plant injury or death, from direct glyphosate application (control) or release of glyphosate from carrier hydrogels (tests), was measured after 14 days by a visual rating system. Results are presented in FIG. 5 as plant injury or death as a percentage, where “100% control” represents total death of a plant. […]

Assay [2] concerns gumbo plants. Description: Example 4: herbicide-induced plant injury or death from precursor mixtures of different lactose to methacrylic anhydride ratios, visual rating. Particulars: 14 days after spraying; glyphosate about 2.34% v/v, 10 gallons spray solution per acre; greenhouse; 100% = total death. The assay is classed as in vivo. Here is the method:
Release of an herbicide from loaded hydrogels was indirectly studied by examining plant injury or death. Hydrogel precursor mixtures were prepared according to the method 200 illustrated in FIG. 2. The precursor mixture was prepared at a lactose to methacrylic anhydride ratio of 1:0.5, 1:0.25, or 1:0.1 (test groups).
Glyphosate (as Touchdown HiTech®, Syngenta) alone (control group) or glyphosate plus hydrogel precursor mixture (test groups) was added to water to form a spray solution. The amount of glyphosate in spray solution was approximately the same (i.e., about 2.34% v/v) for each control and test group. Test groups also included one of the hydrogel precursor mixtures at 5% v/v. Each group included five gumbo plants in a greenhouse. Control or test groups were sprayed at 10 gallons of spray solution per acre. In the test groups, the hydrogel precursor mixtures plus glyphosate were allowed to crosslink in ambient conditions after application to the plants.
Plant injury or death, from direct glyphosate application (control) or release of glyphosate from carrier hydrogels (tests), was measured after 14 days by a visual rating system. Results are presented in FIG. 5 as plant injury or death as a percentage, where “100% control” represents total death of a plant. The same letter attributed to more than one group indicates no statistically significant difference between those groups. […]

Take `O=C(O)CNCP(=O)(O)O` [Glyphosate, N-(phosphonomethyl)glycine]: the “Plant injury or death (average damage on plants)” value in the assay with gumbo plants [1] stood at 85%; in the assay with gumbo plants [2] it was 55%.
